Values of other authors, collected in patent EP0773217A1, “Benzothiphene derivatives for treating resistant tumors” (ELI LILLY AND COMPANY, priority 1995, dated 1997).
≈ marks a conversion by molar mass, not a printed value.

What was measured:
HL60/S cells = conditions: no P-glycoprotein expression
HL60/Adr cells = HL60/Adr cells (resistant to doxorubicin, express p190, no P-glycoprotein)

IC50 (HL60/S cells) [µg/mL]	IC50 (HL60/Adr cells) [µg/mL]	Compound
0.011 (≈ 0.0202 µM)	2.2 (≈ 4.05 µM)	COc1cccc2c1C(=O)c1c(O)c3c(c(O)c1C2=O)C[C@@](O)(C(=O)CO)C[C@@H]3O[C@H]1C[C@H](N)[C@H](O)[C@H](C)O1 [ADRIAMYCIN™, Doxorubicin]
0.39 (≈ 0.663 µM)	> 10	COc1cc([C@@H]2c3cc4c(cc3[C@@H](O[C@@H]3O[C@@H]5CO[C@@H](C)O[C@H]5[C@H](O)[C@H]3O)[C@H]3COC(=O)[C@H]23)OCO4)cc(OC)c1O [ETOPOSIDE™, etoposide]
